In ChEMBL document CHEMBL1201862, “PubChem BioAssay data set” (2004):
Activity calls are given as the source filed them.

Columns and labels:
[1] = target: T1, Microphthalmia-associated transcription factor (Homo sapiens, UniProt O75030); experiment: TRPM1 promoter luciferase signal decrease, dose response, MITF inhibitor project, cell-based, SK-MEL-5, cherry-picked, set 3 (AID 493073); type: functional
T1 sequence (O75030 whole entry): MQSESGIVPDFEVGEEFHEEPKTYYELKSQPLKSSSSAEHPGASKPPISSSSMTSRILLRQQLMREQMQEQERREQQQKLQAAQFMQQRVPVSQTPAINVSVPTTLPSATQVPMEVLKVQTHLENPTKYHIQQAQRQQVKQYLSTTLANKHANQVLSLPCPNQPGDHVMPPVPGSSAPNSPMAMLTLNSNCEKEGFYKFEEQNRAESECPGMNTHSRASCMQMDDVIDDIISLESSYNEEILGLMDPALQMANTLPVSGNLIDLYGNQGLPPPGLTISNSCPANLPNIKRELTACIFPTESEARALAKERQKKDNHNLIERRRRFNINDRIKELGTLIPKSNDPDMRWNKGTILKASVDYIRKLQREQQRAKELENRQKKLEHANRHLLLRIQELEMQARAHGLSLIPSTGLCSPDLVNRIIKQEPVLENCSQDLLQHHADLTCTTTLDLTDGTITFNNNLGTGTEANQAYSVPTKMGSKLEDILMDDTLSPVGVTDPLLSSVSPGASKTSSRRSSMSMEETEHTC

[2] = target: T2, Replicative DNA helicase DnaB (Mycobacterium tuberculosis, UniProt P9WMR3); experiment: DnaB intein splicing inhibitors, dose response, biochemical, cell-free fluorescence (AID 449749); type: functional
T2 sequence (P9WMR3 whole entry): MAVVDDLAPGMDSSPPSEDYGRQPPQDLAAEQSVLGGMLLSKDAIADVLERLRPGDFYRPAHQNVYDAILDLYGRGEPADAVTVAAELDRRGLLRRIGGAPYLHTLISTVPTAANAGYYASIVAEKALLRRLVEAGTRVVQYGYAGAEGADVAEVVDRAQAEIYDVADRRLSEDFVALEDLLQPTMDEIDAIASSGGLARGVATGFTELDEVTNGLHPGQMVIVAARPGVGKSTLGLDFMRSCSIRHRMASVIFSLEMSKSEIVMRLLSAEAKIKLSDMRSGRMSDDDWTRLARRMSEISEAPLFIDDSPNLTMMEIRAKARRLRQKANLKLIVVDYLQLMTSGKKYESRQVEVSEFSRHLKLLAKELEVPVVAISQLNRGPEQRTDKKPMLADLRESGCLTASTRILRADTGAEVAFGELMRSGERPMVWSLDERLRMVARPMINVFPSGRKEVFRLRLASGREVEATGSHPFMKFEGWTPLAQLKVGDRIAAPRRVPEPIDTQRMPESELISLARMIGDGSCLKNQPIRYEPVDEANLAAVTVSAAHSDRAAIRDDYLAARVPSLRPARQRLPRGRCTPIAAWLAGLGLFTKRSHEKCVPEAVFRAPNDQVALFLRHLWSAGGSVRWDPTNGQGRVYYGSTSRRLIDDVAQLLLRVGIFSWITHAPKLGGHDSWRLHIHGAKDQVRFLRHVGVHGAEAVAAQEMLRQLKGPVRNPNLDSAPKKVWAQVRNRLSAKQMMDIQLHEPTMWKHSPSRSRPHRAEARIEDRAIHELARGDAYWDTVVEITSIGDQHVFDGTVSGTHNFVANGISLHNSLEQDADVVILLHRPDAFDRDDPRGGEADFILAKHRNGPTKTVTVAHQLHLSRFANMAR

[3] = target: T3, Apoptotic protease-activating factor 1 (Homo sapiens, UniProt O14727); type: functional
T3 sequence (O14727 whole entry): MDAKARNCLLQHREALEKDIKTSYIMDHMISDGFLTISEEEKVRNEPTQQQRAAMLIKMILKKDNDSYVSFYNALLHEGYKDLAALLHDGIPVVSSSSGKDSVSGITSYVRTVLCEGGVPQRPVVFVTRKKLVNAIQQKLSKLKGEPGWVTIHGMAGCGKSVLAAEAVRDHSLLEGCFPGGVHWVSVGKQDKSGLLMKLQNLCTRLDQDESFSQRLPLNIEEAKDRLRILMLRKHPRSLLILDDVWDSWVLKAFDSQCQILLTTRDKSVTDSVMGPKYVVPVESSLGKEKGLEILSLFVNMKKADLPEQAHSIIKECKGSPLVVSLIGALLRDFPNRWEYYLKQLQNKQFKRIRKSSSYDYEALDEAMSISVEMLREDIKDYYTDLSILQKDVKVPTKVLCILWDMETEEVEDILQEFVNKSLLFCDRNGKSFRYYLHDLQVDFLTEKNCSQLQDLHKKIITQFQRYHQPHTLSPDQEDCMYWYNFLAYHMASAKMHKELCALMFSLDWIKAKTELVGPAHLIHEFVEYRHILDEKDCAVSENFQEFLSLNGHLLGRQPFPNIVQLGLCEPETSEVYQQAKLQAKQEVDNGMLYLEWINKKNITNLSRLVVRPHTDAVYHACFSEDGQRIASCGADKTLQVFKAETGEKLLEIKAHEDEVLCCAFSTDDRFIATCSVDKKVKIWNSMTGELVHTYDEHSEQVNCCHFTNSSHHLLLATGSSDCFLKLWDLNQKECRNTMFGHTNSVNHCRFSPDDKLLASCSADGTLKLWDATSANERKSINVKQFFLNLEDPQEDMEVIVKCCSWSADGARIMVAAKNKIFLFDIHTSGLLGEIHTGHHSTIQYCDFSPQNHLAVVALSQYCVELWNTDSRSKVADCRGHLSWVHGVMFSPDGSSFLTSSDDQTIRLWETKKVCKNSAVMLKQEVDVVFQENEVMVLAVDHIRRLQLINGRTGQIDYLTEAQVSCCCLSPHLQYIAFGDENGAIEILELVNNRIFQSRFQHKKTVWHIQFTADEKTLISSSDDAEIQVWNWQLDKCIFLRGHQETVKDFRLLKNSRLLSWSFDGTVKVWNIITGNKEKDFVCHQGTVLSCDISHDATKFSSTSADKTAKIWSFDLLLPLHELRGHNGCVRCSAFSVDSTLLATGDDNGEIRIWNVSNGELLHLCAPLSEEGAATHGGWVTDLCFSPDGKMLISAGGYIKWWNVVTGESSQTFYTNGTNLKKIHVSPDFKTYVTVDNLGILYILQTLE

[4] = target: T4, Protein RecA (Mycobacterium tuberculosis, UniProt P9WHJ3); experiment: Fluorescence Cell-Free Homogeneous Dose Retest to Identify Inhibitors of RecA-Intein Splicing Activity. [Related pubchem assays (depositor defined):AID2097, AID2223, AID489010, AID492950]; type: functional
T4 sequence (P9WHJ3 whole entry): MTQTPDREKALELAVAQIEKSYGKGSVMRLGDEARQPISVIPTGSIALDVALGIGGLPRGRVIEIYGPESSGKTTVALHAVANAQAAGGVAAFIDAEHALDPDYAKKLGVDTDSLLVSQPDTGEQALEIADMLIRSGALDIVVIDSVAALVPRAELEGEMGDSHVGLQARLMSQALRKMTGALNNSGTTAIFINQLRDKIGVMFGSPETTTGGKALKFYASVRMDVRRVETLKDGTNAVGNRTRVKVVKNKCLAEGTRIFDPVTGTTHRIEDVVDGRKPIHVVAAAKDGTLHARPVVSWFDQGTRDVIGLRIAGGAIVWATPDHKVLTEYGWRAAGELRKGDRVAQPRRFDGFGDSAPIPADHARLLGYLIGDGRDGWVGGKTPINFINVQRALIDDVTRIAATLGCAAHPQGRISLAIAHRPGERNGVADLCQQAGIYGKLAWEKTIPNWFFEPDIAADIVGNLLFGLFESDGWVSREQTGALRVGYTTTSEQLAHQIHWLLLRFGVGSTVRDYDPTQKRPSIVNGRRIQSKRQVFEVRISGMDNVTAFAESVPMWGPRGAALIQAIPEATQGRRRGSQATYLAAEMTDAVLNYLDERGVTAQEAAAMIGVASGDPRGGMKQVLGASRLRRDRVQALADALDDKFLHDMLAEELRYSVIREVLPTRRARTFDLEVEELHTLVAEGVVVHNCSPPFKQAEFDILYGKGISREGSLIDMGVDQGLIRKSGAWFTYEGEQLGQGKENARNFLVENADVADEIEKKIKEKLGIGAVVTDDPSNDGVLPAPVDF

[5] = tested on: INS1; experiment: beta cell apoptosis inhibitors, cytokine rescue, dose response, luminescence, retest (AID 449756); type: functional, cell-based; details: Rattus norvegicus;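 note: cell death triggered by IL-1 beta plus TNF-alpha plus IFN-gamma mixture; protective hits raise ATP signal compared with cytokine alone wells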
[6] = target: T5, Endoribonuclease toxin MazF (Escherichia coli K-12, UniProt P0AE70); experiment: MazF toxin RNase activators, dose response, biochemical, fluorescence, single-stranded RNA substrate, uHTS hits (AID 588481); type: functional
T5 sequence (P0AE70 whole entry): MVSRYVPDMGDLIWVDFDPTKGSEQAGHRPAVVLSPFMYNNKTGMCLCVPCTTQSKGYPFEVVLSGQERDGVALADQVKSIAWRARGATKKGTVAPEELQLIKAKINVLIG

[7] = target: T5, Endoribonuclease toxin MazF; experiment: fluorescent RNA oligo signal without MazF, dose response, counter-screen for MazEF activator project, biochemical, fluorescence, single-stranded RNase substrate (AID 588502); type: functional
[8] = NIH-3T3 fibroblast cytotoxicity, dose response, cytotoxicity control, cell-based, fluorescence, Alamar Blue, secondary assay (AID 2327); type: functional;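 note: NIH-3T3 mouse fibroblasts cultured with fluconazole at 8 µg/mL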
[9] = C. albicans growth with fluconazole, confirmation, fluorescence, retest (AID 2467); type: functional, cell-based
[10] = target: T6, Serine/threonine-protein phosphatase (Candida dubliniensis (strain CD36 / CBS 7987 / NCPF 3949 / NRRLY-17841) (Yeast), UniProt B9W6M3); experiment: calcineurin pathway inhibitors in yeast reporter, dose response, S. cerevisiae, CDRE-lacZ, luminescence, secondary (AID 2388); type: functional, cell-based;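 note: yeast reporter cells carrying a calcineurin-responsive lacZ construct stimulated with calcium chloride; luminescent beta-galactosidase reporter signal in whole cells rather than isolated phosphatase activity; potency for inhibition where a drop in reporter signal means calcineurin blockade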
T6 sequence (B9W6M3 whole entry): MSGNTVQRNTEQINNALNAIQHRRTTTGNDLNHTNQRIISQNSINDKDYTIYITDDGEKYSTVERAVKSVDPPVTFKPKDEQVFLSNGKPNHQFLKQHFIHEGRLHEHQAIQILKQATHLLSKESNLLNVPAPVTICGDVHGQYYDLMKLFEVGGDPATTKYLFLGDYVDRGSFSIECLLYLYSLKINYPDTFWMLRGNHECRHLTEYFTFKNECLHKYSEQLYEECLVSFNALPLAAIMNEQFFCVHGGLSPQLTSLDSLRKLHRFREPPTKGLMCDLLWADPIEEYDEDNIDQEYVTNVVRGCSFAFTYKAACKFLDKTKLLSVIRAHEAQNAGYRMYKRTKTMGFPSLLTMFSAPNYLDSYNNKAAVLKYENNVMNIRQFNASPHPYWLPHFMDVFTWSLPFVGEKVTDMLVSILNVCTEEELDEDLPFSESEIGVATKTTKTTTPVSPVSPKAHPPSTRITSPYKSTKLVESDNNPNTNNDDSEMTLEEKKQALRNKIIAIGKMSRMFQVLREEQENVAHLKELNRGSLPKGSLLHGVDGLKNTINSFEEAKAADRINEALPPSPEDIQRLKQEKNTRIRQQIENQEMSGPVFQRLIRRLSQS

[11] = target: ATP-dependent molecular chaperone HSP82 (Candida albicans (strain WO-1) (Yeast), UniProt C4YTQ8); experiment: loss of DOC-induced GRE-beta-galactosidase reporter signal, dose response, Hsp90 inhibitor project, S. cerevisiae, luminescence (AID 2400); type: functional, cell-based;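 note: beta-galactosidase luminescence from glucocorticoid response element reporter as proxy for Hsp90 function; inhibitor potency where signal loss means Hsp90 inhibition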
Sequence of ATP-dependent molecular chaperone HSP82 (C4YTQ8 whole entry): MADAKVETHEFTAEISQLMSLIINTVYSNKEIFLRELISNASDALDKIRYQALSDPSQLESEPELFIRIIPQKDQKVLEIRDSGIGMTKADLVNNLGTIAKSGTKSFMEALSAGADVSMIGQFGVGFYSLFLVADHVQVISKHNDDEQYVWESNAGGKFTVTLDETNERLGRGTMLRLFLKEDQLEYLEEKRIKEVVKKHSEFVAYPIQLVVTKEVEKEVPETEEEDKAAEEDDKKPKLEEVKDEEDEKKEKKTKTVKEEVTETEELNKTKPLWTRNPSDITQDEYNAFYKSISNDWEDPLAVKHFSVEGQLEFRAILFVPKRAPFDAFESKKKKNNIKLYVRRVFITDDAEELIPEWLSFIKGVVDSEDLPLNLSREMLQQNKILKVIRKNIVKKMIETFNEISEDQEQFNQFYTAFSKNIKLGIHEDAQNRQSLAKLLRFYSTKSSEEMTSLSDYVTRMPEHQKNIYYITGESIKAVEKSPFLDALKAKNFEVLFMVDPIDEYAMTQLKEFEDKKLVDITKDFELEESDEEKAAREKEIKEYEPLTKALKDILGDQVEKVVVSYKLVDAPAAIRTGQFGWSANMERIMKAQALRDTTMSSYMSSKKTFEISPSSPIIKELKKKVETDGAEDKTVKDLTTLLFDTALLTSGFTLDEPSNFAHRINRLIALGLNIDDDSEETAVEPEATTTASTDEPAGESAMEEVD

Row | Structure (SMILES) | AC50 [2] | IC50 [3] | EC50 [4] | EC50 [8] | EC50 [9] | EC50 [10] | EC50 [11] | other results
1 | O=C(NC1=C(Nc2ccc(Cl)cc2)C(=O)c2ccccc2C1=O)c1ccccc1 | 10.4 µM (active) | 39.7 µM (active) | 6.55 µM (active) |  |  |  |  | AC50 [1]: 930 nM (active); AC50 [5]: 6.9 µM (active)
2 | COC(=O)C1=C(C)N(Cc2ccco2)C(=O)/C1=C\c1ccc(N(C)C)cc1 |  |  |  |  |  |  |  | EC50 [6]: 10.7 µM (active); EC50 [7]: 37.5 µM (inactive)
3 | CCc1nnc(NC(=O)CN2CCN(c3nc(-c4ccccc4)cs3)CC2)s1 |  |  |  | > 150 µM (inconclusive) | 1.18 µM (active) | > 180 µM (inactive) | > 150 µM (inactive) | 
4 | CCN=C(S)NNC(=O)c1cc(-c2ccccc2C)nc2ccccc12 |  |  |  | > 160 µM (inactive) | 0.931 µM (active) | > 180 µM (inactive) | > 160 µM (inactive) | 
5 | CCOc1cc(CNc2ccc3c[nH]nc3c2)ccc1OC | > 380 µM (inactive) | 25.2 µM (active) | 7.37 µM (active) |  |  |  |  | 
